Results reported in patent US20240417435A1, “DEFENSIN-DERIVED PEPTIDE WITH ANTIBACTERIAL ACTIVITY ALSO AGAINST MULTI-ANTIBIOTIC-RESISTANT BACTERIA” (priority 2021, published 2024).

Tests used:
[1] = tested on: S. aureus ATCC 6538 biofilm; assay: Biofilm formation by LIVE/DEAD imaging; assay type: cell-based, Staphylococcus aureus; conditions: 24 h static culture
Protocol: (§1) The formation of S. aureus ATCC 6538 and P. aeruginosa ATCC 27853 biofilms was also evaluated by imaging. The medium was then supplemented with various peptide concentrations (2.5, 12.5 and 25 μM) and incubated overnight, and the biofilms were stained with a FilmTracer LIVE/DEAD biofilm viability kit (Invitrogen) according to the manufacturer's instructions. The images were acquired with Cell Discoverer 7, Zeiss.

[2] = tested on: peripheral blood mononuclear cells (PBMC); assay: Cytokine secretion measurement (ProcartaPlex/Luminex); assay type: cell-based, human; conditions: PBMCs from healthy donors; 1.25 and 12.5 μM; 18 hours
Text: Supernatants for cytokine evaluation were harvested from peripheral blood mononuclear cell cultures (PBMCs) and analysed with the Invitrogen ProcartaPlex bead-based immunoassay (Invitrogen, Thermo Fisher Scientific) using the Luminex instrument platform (Luminex 200, Luminex Corporation), according to the manufacturer's instructions. xPONENT 3.1 software (Luminex) was used for acquisition and analysis of the samples.

HT-1080 cells [3] = tested on: HT-1080 cells
Protocol: (§6) Parental HT-1080, HUVEC, SH-SY5Y human fibroblasts (HF) and A549 cells from Culture Cell Lines Facility CEINGE Biotecnologie Avanzate s.c.ar.l., Naples, Italy, and HeLa cells (ATCC CCL-2) stored in liquid nitrogen, were thawed by stirring the vials gently for 2 minutes in a water bath at 37° C. […]
(§7) The cells were incubated for 24 hours at 37° C. in 5% CO2 to allow them to grow and form a single layer in the flask. Cells grown to 80-95% confluency were washed with PBS, treated with 3 mL of trypsin-EDTA 1× solution, diluted, counted and seeded (4×10^3 cells/200 μl per well) in 96-well tissue-culture plates for 24 h in triplicate. The reduction in cell proliferation was evaluated with the 3-[4,5-dimethylthiazol-2-yl]-2,5-diphenyltetrazolium bromide (MTT) assay, which measures metabolic changes. […] After incubation, the presence of violet crystals, which normally indicate metabolisation of MTT, was evaluated. […] The specific stain eluted was measured with a spectrophotometer (550 nm). […] The cell inhibition percentage was determined with the following formula:
(§8) % cell inhibition=100−(Absorbance of treated cells/Absorbance of control cells)×100. […]
(§9) The mean percentage cell inhibition values for each cell line at different peptide γ2 concentrations compared with the untreated cells were analysed with One-way ANOVA.

A549 cells [4] = assay: Cell migration assay in Boyden chambers; assay type: cell-based
Protocol: (§2) Cell migration assays were conducted as previously described (Bifulco K et al., Mol Cancer There 2013; 2:1981-93), using Boyden chambers and polyvinylpyrrolidone-free polycarbonate filters with 8 μm pores inserted between a lower and upper compartment. Briefly, the cell suspension (1×10^5 viable cells/mL of serum-free medium) was seeded in each upper chamber. The lower chambers were filled with DMEM only, DMEM containing 10 nM N-formyl-methionyl-leucylphenylalanine peptide (fMLF), as positive control, or increasing peptide γ2 concentration. Incubation was conducted for 4 h at 37° C. in air humidified with 5% CO2. At the end of the assay, the cells on the lower surface of the filter were fixed with ethanol and stained with haematoxylin, and 10 random fields/filter were counted with a 200× magnification. The extent of cell migration was expressed as a percentage of baseline cell migration evaluated in the absence of chemo-attractants, taken as 100% (CTRL).

HT-1080 cells [5] = assay: Cell migration assay in Boyden chambers; assay type: cell-based
Protocol: as §2

HUVEC endothelial cells = assay: Cell migration assay in Boyden chambers; assay type: cell-based
Protocol: as §2

[6] = tested on: P. aeruginosa ATCC 27853 biofilm; assay: Biofilm formation by LIVE/DEAD imaging; assay type: cell-based, Pseudomonas aeruginosa; conditions: 24 h static culture
Protocol: as §1

[7] = tested on: P. aeruginosa ATCC 27853 biofilm; assay: Biofilm formation and maturation, crystal violet; assay type: cell-based, Pseudomonas aeruginosa; conditions: concentrations slightly higher than MIC, dose-dependent, maximum activity at 125 μM
Protocol: (§3) The biofilm formation test for S. aureus ATCC 6538 and P. aeruginosa ATCC 27853 was conducted in 96-well plates, as previously reported (Merritt J H, Kadouri D E, O'Toole G A. Growing and analyzing static biofilms. Curr Protoc Microbiol. 2005; Chapter 1: Unit 1B.1.)
(§4) Briefly, the bacteria from overnight cultures were diluted and grown to 0.5 McFarland. The bacteria were diluted 1:100 and plated in each well containing 100 μL of BHI broth. To evaluate the impact of peptide γ2 on biofilm formation, the medium was supplemented with various concentrations of peptide (2.5, 12.5, 25 and 125 μM) and incubated overnight. To evaluate biofilm maturation, the bacteria of the cultures grown overnight were diluted 1:1000, and 5 μL of said bacterial suspensions was added to each well, containing 100 μL of BHI broth, and left to grow overnight. The medium was then removed and replaced with fresh medium containing various peptide concentrations (2.5, 12.5 and 125 μM). At the end of incubation, the medium was removed; the biofilms were washed twice with PBS and stained with crystal violet (1%) for 30 minutes, then resuspended in 200 μL of ethanol. The negative controls were bacteria incubated with medium only. The positive controls were bacteria incubated with medium supplemented with 0.42 μM gentamicin.

P. aeruginosa ATCC 27853 = assay: SYTOX Green absorption assay (membrane permeabilisation); assay type: cell-based, Pseudomonas aeruginosa
Protocol: (§5) The effect of peptide γ2 on the membrane integrity of S. aureus ATCC 6538 and P. aeruginosa ATCC 27853 was evaluated by measuring the extent of intracellular accumulation of SYTOX green (Juba M L, et al. Biochim Biophys Acta. 2015; 1848 (5): 1081-91). The cells were harvested halfway through the log phase, washed, and resuspended in 10 mM of phosphate buffer. The final density was adjusted to 5×10^7 CFU/mL. The cells were then treated with peptide γ2 (0.625, 1.25, 2.5, 12.5, 25 μM) in the presence of 200 nM SYTOX green (Invitrogen). The fluorescence increase of SYTOX green, a direct measurement of the degree of membrane permeabilisation, was monitored with a fluorescence spectrophotometer. The excitation and emission wavelengths used were 503 nm and 523 nm respectively. 5

S. aureus ATCC 6538 = assay: as above; assay type: cell-based, Staphylococcus aureus
Protocol: as §5

A549 cells [8] = tested on: A549 cells
Protocol: as §6, §7, §8, §9

[9] = tested on: S. aureus ATCC 6538 biofilm; assay: Biofilm formation and maturation, crystal violet; assay type: cell-based, Staphylococcus aureus; conditions: concentrations slightly higher than MIC, dose-dependent, maximum activity at 125 μM
Protocol: as §3, §4

Protocol for HUVEC cells: as §6, §7, §8, §9
Protocol for HeLa cells: as §6, §7, §8, §9
Protocol for human fibroblasts (HF): as §6, §7, §8, §9

“Ac-CLPKRRQIGKSSTRGRKSCKK-NH2 (not fully specified (bridges); printed as Ac-CLPKRRQIGKSSTRGRKSCKK-NH2; also: oxidised (disulfide) or reduced form, both stated) [peptide γ2, defensin (hBD3 γ-core)-derived peptide]” was tested, and the “smallest dose at which inhibition of biofilm formation was already evident” value [1] was 2.5 µM, the IL-1 secretion [2] was “up-regulated” and the IL-6 secretion [2] was “up-regulated”. The IL-9 secretion [2] was “up-regulated”, the INF-γ secretion [2] was “up-regulated” and the cell viability (HT-1080 cells [3]) was “viability remained high”. The “directional migration, % of the baseline cell migration” value (“directional migration, %” below) (A549 cells [4]; 50 μM, 4 h) was 169%, the directional cell migration (A549 cells [4]; 100 μM versus 50 μM) was “did not further increase directional cell migration” and the chemotactic effect (A549 cells [4]; low concentrations) was “slight chemotactic effect”. For the same substance, the “directional migration, %” value (HT-1080 cells [5]; 50 μM, 4 h) was 158%, the directional cell migration (HT-1080 cells [5]; 100 μM versus 50 μM) was “did not further increase directional cell migration” and the chemotactic effect (HT-1080 cells [5]; low concentrations) was “slight chemotactic effect”. For the same substance, the directional cell migration (HUVEC endothelial cells; HUVEC, 100 μM versus 50 μM) was “did not further increase directional cell migration”, the chemotactic effect (HUVEC endothelial cells; HUVEC, low concentrations) was “slight chemotactic effect” and the “directional migration, %” value (HUVEC endothelial cells; endothelial cells (HUVEC), 50 μM, 4 h) was 156%. The “smallest dose at which inhibition of biofilm formation was already evident” value [6] was 2.5 µM, the “reduction of cell viability” value (human fibroblasts (HF)) was “about 20%” and the biofilm formation [7] was “significantly inhibited”. For the same substance, the biofilm maturation [7] was “significantly inhibited”, the “reduction of cell viability” value (HUVEC cells) was “about 20%” and the cell viability (HeLa cells) was “viability remained high”. For the same substance, the “cell viability compared with the control cells” value (HeLa cells; human, HeLa cells, 6 h, 40 µM) was 97%, the “incubation time at which increased influx of SYTOX Green was seen” value (P. aeruginosa ATCC 27853) was 15 min and the “dose at which the peptide already effectively permeabilised the bacteria” value (P. aeruginosa ATCC 27853; SYTOX Green, dose-dependent) was 1.25 µM. The “incubation time at which increased influx of SYTOX Green was evident” value (S. aureus ATCC 6538) was 40 min, the “dose at which the peptide already effectively permeabilised the bacteria” value (S. aureus ATCC 6538; SYTOX Green, dose-dependent) was 1.25 µM and the “reduction of cell viability” value (A549 cells [8]) was “about 20%”. The biofilm formation [9] was “significantly inhibited” and the biofilm maturation [9] was “significantly inhibited”.
